pIC50: −log10 of the molar value. Read-outs that look alike come from different tables or passages of the source.
Experiments:
NDM-1 = NDM-1 (Klebsiella pneumoniae, UniProt C7C422); test: Enzyme activity: determination of IC50, fluorescence assay with CCF2-FA substrate; format: biochemical; conditions: CCF2-FA 1.25 μM, 2 hours at 25° C., read-out: NDM1 IC50
Method in brief: (§1)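 Read-out: fluorescence, ex 405 nm / em 460 nm, after 2 h at 25° C with 1.25 μM CCF2-FA. Buffer 100 mM KH2PO4 pH 7, 0.005% Tween-20, 10 μM ZnSO4; enzyme 1 pM NDM-1, 2 pM IMP-1, 30 pM VIM-1. IC50 by 4-parameter fit.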

IMP-1 = IMP-1 (Serratia marcescens, UniProt P52699); test: as above; format: biochemical; conditions: CCF2-FA 1.25 μM, 2 hours at 25° C., read-out: IMP1 IC50
IMP-1, sequence (P52699 19-246, looked up, species assumed): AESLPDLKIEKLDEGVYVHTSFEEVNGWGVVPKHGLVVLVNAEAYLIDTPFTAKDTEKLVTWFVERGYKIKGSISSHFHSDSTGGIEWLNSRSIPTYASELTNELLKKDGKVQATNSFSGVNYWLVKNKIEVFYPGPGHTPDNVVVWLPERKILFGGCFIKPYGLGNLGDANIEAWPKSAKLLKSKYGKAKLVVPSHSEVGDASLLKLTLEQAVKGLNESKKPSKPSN
Method in brief: as §1

VIM-1 = VIM-1 (Pseudomonas aeruginosa, UniProt A0A0F7KYQ8); test: as above; format: biochemical; conditions: CCF2-FA 1.25 μM, 2 hours at 25° C., read-out: VIM1 IC50
Method in brief: as §1

[1] = system: Escherichia coli expressing NDM-1 (CLB30016); test: Antibiotic potentiation activity: synergistic concentration (MITC95) with imipenem, growth by OD600; format: cell-based
Method in brief: (§2)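 Strains grown overnight at 35° C, resuspended in saline, diluted 1:100 into 1.1×CAMHB; imipenem at 1 μg/ml or 4 μg/ml with test compound 200 μM to 0.195 μM. Incubated 22 hours to 24 hours at 35° C, OD600 read; MITC95 is lowest compound concentration inhibiting 95% of growth.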

[2] = system: Serratia marcescens expressing IMP-1 (CL5741); test: as above; format: cell-based
Method in brief: as §2

[3] = system: Klebsiella pneumoniae expressing VIM-1 (IHMA599644); test: as above; format: cell-based
Method in brief: as §2

[4] = 95% inhibition of bacterial growth, strain CLB30016
[5] = 95% inhibition of bacterial growth, strain CL5741
[6] = 95% inhibition of bacterial growth, strain IHMA599644
[7] = E. coli CLB30016 (NDM-1), 95% inhibition of growth
[8] = S. marcescens CL5741 (IMP-1), 95% inhibition of growth
[9] = K. pneumoniae IHMA599644 (VIM-1), 95% inhibition of growth

NDM-1, sequence (C7C422 29-270, looked up, species assumed): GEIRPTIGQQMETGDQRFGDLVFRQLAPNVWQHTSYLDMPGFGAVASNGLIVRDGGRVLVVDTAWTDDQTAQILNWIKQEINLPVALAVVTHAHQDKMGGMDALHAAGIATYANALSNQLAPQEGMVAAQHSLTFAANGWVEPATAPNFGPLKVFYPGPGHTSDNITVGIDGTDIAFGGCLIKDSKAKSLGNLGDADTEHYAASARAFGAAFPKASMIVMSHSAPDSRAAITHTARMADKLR

Compound	pIC50 (NDM-1; enzyme 1 pM)	pIC50 (IMP-1; enzyme 2 pM)	pIC50 (VIM-1; enzyme 30 pM)	NDM1 EC30016 MITC95 [1, 4]	IMP1 SM5741 MITC95 [2, 5]	VIM1 KP599644 MITC95 [3, 6]	pIC50 (NDM-1; NDM-1 enzyme 1 pM)	pIC50 (IMP-1; IMP-1 enzyme 2 pM)	pIC50 (VIM-1; VIM-1 enzyme 30 pM)	NDM1 EC30016 MITC95 [1, 7]	IMP1 SM5741 MITC95 [2, 8]	VIM1 KP599644 MITC95 [3, 9]
CC(C)C[C@H](C(=O)O)[C@H](Cc1cnc(N)s1)c1nnn[nH]1 [Example 116, (2S)2-[(1S)-2-(2-amino-1,3-thiazol-5-yl)-1-(1H-tetrazol-5-yl)ethyl]-4-methylpentanoic acid]	6.85	6.54	8.36	3.1 µM	9.4 µM	18.8 µM						
CC(C)C[C@H](C(=O)O)[C@H](Cc1ccc(CCCN)c(F)c1)c1nn[nH]n1.O=C(O)C(F)(F)F [Example 440, 5-((2S,3S)-1-(4-(3-aminopropyl)-3-fluorophenyl)-3-carboxy-5-methylhexan-2-yl)-2H-tetrazol-3-ium 2,2,2-trifluoroacetate]							7.43	6.91	8.79	6.25 µM	6.25 µM	12.5 µM
CC(C)C[C@H](C(=O)O)[C@H](Cc1ccc(Oc2ccccc2C2CCCN2)nc1)c1nn[nH]n1 (stereo partly drawn) [Example 374, (2S)-4-methyl-2-[(1S)-2-[6-(2-pyrrolidin-2-ylphenoxy)pyridin-3-yl]-1-(2H-tetrazol-5-yl)ethyl]pentanoic acid]							7.92	7.05	8.52	9.4 µM	9.4 µM	62 µM
CCC[C@H](C(=O)O)[C@H](Cc1cccc(-c2ccncc2)c1)c1nn[nH]n1 [Example 353, (2S)-2-[(1S)-2-(3-pyridin-4-ylphenyl)-1-(2H-tetrazol-5-yl)ethyl]pentanoic acid]							7.89	6.80	8.64	38 µM	6.2 µM	100 µM
CCC[C@H](C(=O)O)[C@H](Cc1ccc(CN)cc1)c1nnn[nH]1 [Example 54, (S)-2-((S)-2-(4-(aminomethyl)phenyl)-1-(1H-tetrazol-5-yl)ethyl)pentanoic acid]	5.80	4.89	7.40	18.8 µM	75 µM	12.5 µM						
CCC[C@H](C(=O)O)[C@H](Cc1ccc(NCC2CCCN2CC)cc1)c1nn[nH]n1 (stereo partly drawn) [Example 215, (2S)-2-[(1S)-2-(4-{[(1-ethylpyrrolidin-2-yl)methyl]amino}phenyl)-1-(2H-tetrazol-5-yl)ethyl]pentanoic acid]	6.77	5.96	7.54	12.5 µM	18.8 µM	50 µM						
CC(C)C[C@H](C(=O)O)[C@H](Cc1ccc(N2CC(CCN)C2)nc1)c1nnn[nH]1 [Example 326, (2S)-2-[(1S)-2-{6-[3-(2-aminoethyl)azetidin-1-yl]pyridin-3-yl}-1-(1H-tetrazol-5-yl)ethyl]-4-methylpentanoic acid]							5.19	< 4.70	7.54	50 µM	>200 µM	6.2 µM
CC(C)[C@H](C(=O)O)[C@H](Cc1cccc(NCCO)n1)c1nnn[nH]1 [Example 138, (2S,3S)-4-(6-((2-hydroxyethyl)amino)pyridin-2-yl)-2-isopropyl-3-(1H-tetrazol-5-yl)butanoic acid]	6.31	< 4.70	6.17	3.1 µM	>200 µM	75 µM						
CCC[C@H](C(=O)O)[C@H](Cc1cccc(-c2ccc(N)nc2)c1)c1nn[nH]n1 [Example 342, (2S)-2-[(1S)-2-[3-(6-aminopyridin-3-yl)phenyl]-1-(2H-tetrazol-5-yl)ethyl]pentanoic acid]							8.33	6.77	8.96	6.2 µM	3.1 µM	12.5 µM
CC(C)C[C@H](C(=O)O)[C@H](Cc1ccc(-c2ccc(CO)cc2)nc1)c1nn[nH]n1 [Example 177, (2S)-2-[(1S)-2-{6-[4-(hydroxymethyl)phenyl]pyridin-3-yl}-1-(2H-tetrazol-5-yl)ethyl]-4-methylpentanoic acid]	7.40	6.85	8.29	12.5 µM	4.7 µM	38 µM						

Source: patent publication US9839642B2, “Beta-tetrazolyl-propionic acids as metallo-beta-lactamase inhibitors” (priority 2014, dated 2017)
